Patent US8518916B2, “Heterocyclic derivatives as M-GLU5 antagonists” (Recordati Ireland Limited, priority 2007, dated 2013)
pKi: −log10 of the molar value.

Tests used:
mGlu5 receptor = target: T1, mGlu5 receptor (Rattus norvegicus, UniProt P31424); test: Radioligand binding assay ([3H]MPEP) at metabotropic glutamate receptor 5 in rat brain; settings: rat forebrain membranes, 4 nM [3H]MPEP; read-out: affinity (Ki) for mGlu5 receptor
T1 construct: from tissue; host or cells: forebrain (cortex, striatum and hippocampus) of male Sprague Dawley rats
Experimental: Radioligand Binding Assay at metabotropic glutamate receptor 5 in rat brain.
a) Membrane preparation: male Sprague Dawley rats (200-300 g, Charles River, Italy) were killed by cervical dislocation and the forebrain (cortex, striatum and hippocampus) was homogenized (2×20 sec) in 50 vols of cold 50 mM Tris buffer pH 7.4, using a Politron homogenizer (Kinematica). Homogenates were centrifuged at 48000×g for 15 min, resuspended in 50 vols of the same buffer, incubated at 37° C. for 15 min and centrifuged and resuspended two more times. The final pellets were frozen and stored at −80° C. until use.
b) Binding assay: pellets from rat forebrain were resuspended in 100 vols of 20 mM HEPES, 2 mM MgCl2, 2 mM CaCl2, pH 7.4. The membranes were incubated in a final volume of 1 ml for 60 min at 25° C. with 4 nM [^3H]MPEP in the absence or presence of competing drugs. Non-specific binding was determined in the presence of 10 μM MPEP (Spooren W. et al., Trends Pharmacol Sci. 22, 331-337, 2001). The incubation was stopped by the addition of cold Tris buffer pH 7.4 and rapid filtration through 0.5% polyethyleneimine pretreated Filtermat 1204-401 (Wallac) filters. The filters were then washed with cold buffer and the radioactivity retained on the filters was counted by liquid scintillation spectrometry. […]

conscious rats = test: Cystometry in conscious rats (bladder volume capacity); type: in vivo, rat; settings: for effect on bladder volume capacity: 1-3 h after treatment; for "In vivo" cystometry MED (Minimal Effective Dose that induces statistically significant increase of bladder volume capacity): oral
Experimental: Male Sprague-Dawley rats [Crl: CD® (SD) IGS BR] of 300-400 g b.w. supplied by Charles River Italia were used. The animals were housed with free access to food and water and maintained on a forced 12-hour-light/12-hour-dark cycle at 22-24° C. of temperature, except during the experiment. To quantify urodynamic parameters in conscious rats, cystometrographic studies were performed according to the procedure previously reported (Guarneri et al., Pharmacol. Res. 24: 175, 1991).
Briefly, the rats were anaesthetised by intraperitoneal administration of 3 ml/kg of Equithensin solution (pentobarbital 30 mg/kg and chloral hydrate 125 mg/kg) and placed in a supine position. An approximately 10 mm long midline incision was made in the shaved and cleaned abdominal wall. The urinary bladder was gently freed from adhering tissues, emptied and then cannulated via an incision in the bladder body, using a polyethylene cannula (0.58 mm internal diameter, 0.96 mm external diameter) which was permanently sutured with silk thread. The cannula was exteriorised through a subcutaneous tunnel in the retroscapular area, where it was connected to a plastic adapter in order to avoid the risk of removal by the animal. For drug testing, the rats were utilised one day after implantation.
On the day of the experiment, the rats were placed in modified Bollman cages, i.e., restraining cages that were large enough to permit the rats to adopt a normal crouched posture, but narrow enough to prevent turning around. After a stabilisation period of about 20 minutes, the free tip of the bladder cannula was connected through a T-shaped tube to a pressure transducer (Statham P23XL) and to a peristaltic pump (Gilson Minipuls 2) for continuous infusion of a warm (37° C.) saline solution into the urinary bladder, at a constant rate of 0.1 ml/minute. The intraluminal-pressure signal during infusion of saline into the bladder (cystometrogram) was continuously recorded on a polygraph (Rectigraph-8K San-ei with BM614/2 amplifier from Biomedica Mangoni) or stored on PC by data acquisition system (PowerLab, Chart 4 software, AD Instruments). From the cystometrogram, bladder volume capacity (BVC) was evaluated. BVC (in ml) is defined as the volume of saline infused into the bladder necessary to induce detrusor contraction followed by micturition. Basal BVC value was evaluated as the mean of the values observed in the cystometrograms recorded in an initial period of 30-60 minutes. At this point in the assay, the infusion was interrupted and the test compounds were administered orally by a stomach tube. The bladder infusion restarted and changes in BVC were evaluated from the mean values obtained in the cystometrograms observed during 1, 2, and 3 hours after treatment. The compounds were administered in a volume of 2 ml/kg. Groups of control animals received the same amount of vehicle corresponding to a solution 0.5% methocel in water.
Under the given test conditions, measurement of BVC is equivalent to measurement of interval time between micturitions.
Each experimental group was composed of 4-11 animals. All data were expressed as mean±standard error. The percent change of BVC versus the basal value, as well as Δ value (difference in ml) of BVC (BVC at time “x” minus basal value), were also evaluated for each rat/time. In the figures, data are reported as % change versus the basal value.
Statistical analysis on BVC values, as well as on Δ values, was performed by S.A.S./STAT software, version 6.12. The difference between vehicle and active treatment effect was evaluated on Δ values of BVC, whereas the difference between the values at different times versus the basal values was evaluated on original BVC data.

T1 sequence (P31424 21-1203): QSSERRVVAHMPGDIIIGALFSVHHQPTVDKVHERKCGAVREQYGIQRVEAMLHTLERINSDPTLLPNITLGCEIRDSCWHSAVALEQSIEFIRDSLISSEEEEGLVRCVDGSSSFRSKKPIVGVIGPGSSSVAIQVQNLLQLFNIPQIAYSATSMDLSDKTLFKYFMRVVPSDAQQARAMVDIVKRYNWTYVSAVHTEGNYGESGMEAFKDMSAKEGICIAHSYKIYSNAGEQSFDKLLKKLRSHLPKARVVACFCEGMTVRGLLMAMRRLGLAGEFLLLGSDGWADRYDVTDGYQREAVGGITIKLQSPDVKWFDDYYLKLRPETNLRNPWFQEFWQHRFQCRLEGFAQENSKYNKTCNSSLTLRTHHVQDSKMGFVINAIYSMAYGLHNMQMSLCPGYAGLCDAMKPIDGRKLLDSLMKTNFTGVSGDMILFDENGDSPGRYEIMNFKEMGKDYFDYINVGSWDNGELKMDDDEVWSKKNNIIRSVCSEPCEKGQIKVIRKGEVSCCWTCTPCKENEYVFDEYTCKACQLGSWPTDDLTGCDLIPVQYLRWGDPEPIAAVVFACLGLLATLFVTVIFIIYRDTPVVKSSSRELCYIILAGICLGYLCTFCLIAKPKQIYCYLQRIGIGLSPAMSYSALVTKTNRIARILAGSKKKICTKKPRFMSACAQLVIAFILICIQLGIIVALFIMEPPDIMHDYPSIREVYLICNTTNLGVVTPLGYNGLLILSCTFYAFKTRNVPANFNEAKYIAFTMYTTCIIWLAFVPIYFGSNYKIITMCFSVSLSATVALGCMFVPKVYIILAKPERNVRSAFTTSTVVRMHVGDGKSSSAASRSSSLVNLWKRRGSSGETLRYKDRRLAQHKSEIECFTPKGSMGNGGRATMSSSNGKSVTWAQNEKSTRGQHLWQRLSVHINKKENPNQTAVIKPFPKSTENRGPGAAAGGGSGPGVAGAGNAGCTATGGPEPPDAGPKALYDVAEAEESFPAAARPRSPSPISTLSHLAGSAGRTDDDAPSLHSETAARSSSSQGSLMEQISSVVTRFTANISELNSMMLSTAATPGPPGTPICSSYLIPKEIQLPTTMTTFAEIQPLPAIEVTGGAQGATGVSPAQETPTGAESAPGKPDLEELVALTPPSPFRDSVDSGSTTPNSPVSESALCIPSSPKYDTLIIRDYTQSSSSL

| SMILES | "In vivo" cystometry MED (Minimal Effective Dose that induces statistically significant increase of bladder volume capacity) (conscious rats) [mg/kg os] | also measured |
| --- | --- | --- |
| Cc1cccc(C#CC=C2CCN(c3ncccc3[N+](=O)[O-])CC2)n1 [Example 1, 2-{4-[3-(6-Methylpyridin-2-yl)prop-2-ynylidene]piperidin-1-yl}-3-nitropyridine] | 3 | pKi (mGlu5 receptor): 9.43; effect on bladder volume capacity (conscious rats; 1 mg/kg orally): proved effective in increasing the bladder volume capacity; effect on bladder volume capacity (conscious rats; 3 mg/kg orally): proved effective in increasing the bladder volume capacity |
| Cc1cccc(C#CC=C2CCN(c3nc(C)ccc3[N+](=O)[O-])CC2)n1 [Example 5, 6-Methyl-2-[4-[3-(6-methylpyridin-2-yl)prop-2-ynylidene]piperidin-1-yl]-3-nitropyridine] | 0.1 |  |
| COc1ccc([N+](=O)[O-])c(N2CCC(=CC#Cc3cccc(C)n3)CC2)n1 [Example 6, 6-Methoxy-2-{4-[3-(6-methylpyridin-2-yl)prop-2-ynylidene]piperidin-1-yl}-3-nitropyridine] | 1 |  |
| O=[N+]([O-])c1cccnc1N1CCC(=CC#Cc2ccccn2)CC1 [Example 9, 3-Nitro-2-[4-(3-pyridin-2-ylprop-2-ynylidene)piperidin-1-yl]pyridine] | 1 |  |
| O=[N+]([O-])c1cccnc1N1CCC(=CC#Cc2ccccc2)CC1 [Example 10, 3-Nitro-2-[4-(3-phenylprop-2-ynylidene)piperidin-1-yl]pyridine] | 1 | effect on bladder volume capacity (conscious rats; 0.3 mg/kg orally): slightly increased the bladder volume capacity (not statistical significant); effect on bladder volume capacity (conscious rats; 1 mg/kg orally): proved effective in increasing bladder volume capacity |
| O=[N+]([O-])c1cccnc1N1CCC(=CC#Cc2ccc(F)nc2)CC1 [Example 35, 2-{4-[3-(6-Fluoropyridin-3-yl)prop-2-ynylidene]piperidin-1-yl}-3-nitropyridine] | 3 |  |
| Cc1cccc(C#CC=C2CCN(c3ccccc3C#N)CC2)n1 [Example 43, 2-{4-[3-(6-Methylpyridin-2-yl)prop-2-ynylidene]piperidin-1-yl}benzonitrile] | 3 |  |
| Cc1cccc(C#CC=C2CCN(c3ccc(F)cc3[N+](=O)[O-])CC2)n1 [Example 55, 2-{3-[1-(4-Fluoro-2-nitrophenyl)piperidin-4-ylidene]prop-1-ynyl}-6-methylpyridine] | 0.3 |  |
| Cc1cccc(C#CC=C2CCN(c3ccc(C#N)cc3[N+](=O)[O-])CC2)n1 [Example 56, 4-{4-[3-(6-Methylpyridin-2-yl)prop-2-ynylidene]piperidin-1-yl}-3-nitrobenzonitrile] | 1 |  |
| O=[N+]([O-])c1cccnc1N1CCC(=C(F)C#Cc2ccccc2)CC1 [Example 67, 2-[4-(1-Fluoro-3-phenylprop-2-yn-1-ylidene)piperidin-1-yl]-3-nitropyridine] | 1 |  |
| O=[N+]([O-])c1cccnc1N1CCC(=CC#Cc2cc(F)cc(F)c2)CC1 [Example 202, 2-{4-[3-(3,5-Difluorophenyl)prop-2-yn-1-ylidene]piperidin-1-yl}-3-nitropyridine] | 3 |  |
| O=[N+]([O-])c1cccnc1N1CCC(=CC#Cc2cccc(Br)c2)CC1 [Example 208, 2-{4-[3-(3-Bromophenyl)prop-2-yn-1-ylidene]piperidin-1-yl}-3-nitropyridine] | 0.3 |  |
| Cc1nc(C#Cc2cccnc2)cs1 [MTEP, reference compound] | 3 | effect on bladder volume capacity (conscious rats; 1 mg/kg orally): only a slight increase of bladder volume capacity; effect on bladder volume capacity (conscious rats; 3 mg/kg orally): sustained increase |
